Columns and labels:
[1] = dehydration test (weight loss over time); type: physicochemical; conditions: glycerol added to alginate
Description: One of the main advantages of using hydrogels as a substrate for wound dressings is their ability to retain moisture at the wound site. However, hydrogels may be prone to rapid dehydration, which can compromise the integrity of the dressing and ultimately affect its functionality. Rapid dehydration of the hydrogels can pose a challenge for the clinical application of gel-based dressings. The dehydration rate of the dermal patch was evaluated by measuring its weight loss at 37° C. and it was observed that the alginate patch was completely dehydrated in less than 10 hr (FIG. 26A). Influential parameters on dehydration rates including alginate concentration and dressing thickness were altered for these experiments. […]
The effect of Mepitel® on the dehydration rate of the hydrogel dressing was studied. Dressings with 2% w/v alginate were covered by Mepitel® and their weight were measured in 24 hr. […]
Dehydration and hydration tests: Square gel sheets (15 mm×15 mm) made of two different concentrations of alginate (2% and 6% w/v) and two different thicknesses (1.5 mm and 3 mm) were fabricated by crosslinking with agarose sheets containing CaCl2 similar to preparation of the patches. […] The weight was then recorded during definite time intervals for 3 hours and the degree of swelling was then obtained by determining the gained weight for each sample.

P. aeruginosa = experiment: semi quantitative bacteria inhibition assay of drug-eluting scaffolds on agar plate; type: cell-based, Pseudomonas aeruginosa; conditions: 3 mg/ml dosage
Description: To examine the antibacterial effectiveness of the drug-eluting scaffolds, a semi quantitative bacteria inhibition assay was performed using P. aeruginosa. […] Scaffolds with no drugs and filter paper impregnated with the same amount of drugs were used as negative and positive controls, respectively. Gentamicin is widely used as an effective antibiotic agent against a wide range of Gram-negative and Gram-positive bacteria, including P. aeruginosa (25-27). […] The observed white ring around the scaffold within the inhibited zone was suspected to be infected by the bacteria. Therefore, we collected swab samples from three different zones near the scaffold (point 1), in the white region (point 2), and at the edge of the ring (point 3), then plated the samples overnight on another agar plate. […] The formation of the white ring around the scaffold can be attributed to the interaction of the phosphate ions in the agar and calcium ions that were releasing from the calcium alginate scaffolds.
Bacteria viability loss assay: Drug-eluting scaffolds were embedded in alginate patches as described previously; patches were then placed on top of a Tryptic soy agar (TSA, Sigma-Aldrich) plate on which Pseudomonas aeruginosa bacteria were spread and the effect of the antimicrobial was investigated after incubation at 37° C. for 18 hr.

[2] = antibacterial efficiency of UV-sterilized gentamicin versus drug not treated with UV; type: cell-based; conditions: UV 365 nm, 200 mW/cm^2
Source text: In a representative example, multifunctional dressings were made according to the embodiments described herein comprising an array of porous color-changing pH sensors (e.g., the sensing elements 14) and drug-eluting scaffolds (e.g., the therapeutic agent delivery elements 16), which were embedded within an alginate dressing (FIG. 16A). The array of porous sensors (each sensor was 12×12 mm in size) comprised three-dimensionally (3D)-printed color-changing alginate fibers that were loaded with mesoporous resin beads doped with a pH-responsive dye (FIGS. 16A-16G). Alginate is a naturally-derived polysaccharide that can be used as a dressing material for epidermal applications due to its biocompatibility, hemostatic properties, and non-adhesive characteristics that facilitate the removal of the dressing without trauma and pain (14-18). With reference to FIG. 6A and FIGS. 16B and 16C, to print the sensors, a microextruder 60 comprising two coaxial needles 62 and 64 (FIG. 16C and FIGS. 22A-22B) mounted on a 3D printer (e.g., a Prusa i3) was used. The porosity of the sensors was adjusted by changing the diameter of the fibers while keeping the spacing between fibers constant. Encapsulation of the beads within the hydrogel fibers prevented the beads from dispersing in the wound area while providing a biocompatible interface with the wound site. […]

| Molecule | reduction of dehydration rate [1] | effectiveness of topical delivery in the in vitro inhibition assay (P. aeruginosa) | impact of UV exposure on antibacterial efficiency of the drug [2] |
| --- | --- | --- | --- |
| OCC(O)CO [glycerol] | 30% |  |  |
| gentamicin sulfate |  | demonstrated the effectiveness | no impact |

Source: patent US12138140B2, “Wound covering for wound monitoring and therapeutic agent delivery” (UVic Industry Partnerships Inc., priority 2017, dated 2024)
